Blank lines part the entries; values can stand above or below the molecule they belong to.
Key:
[1] = patients; cited from earlier work
[2] = peptide-based hydroxamate; cited from earlier work
[3] = system: metastasis; settings: phase III, advanced cancer patients; cited from earlier work
[4] = biological target: MT1-MMP (Homo sapiens, UniProt P50281); settings: cited from earlier work
[5] = system: cell surface gelatinolytic activity of HT1080 cells; assay: in situ zymography with DQ-gelatin; type: cell-based, human; settings: 15 μM SB-3CT
Protocol: To localize net gelatinolytic activity of MMPs by in situ zymography, fluorescein isothiocyanate-labeled DQ gelatin that is intramolecularly quenched (Molecular Probes) was used as a substrate for degradation by gelatinases. Proteolysis by gelatinases yields cleaved fluorescein isothiocyanate-gelatin peptides and the localization of this fluorescence indicates the sites of net gelatinolytic activity. Briefly, Human fibrosarcoma HT1080 cells (which produce MMP-2, MMP-9 and MT1-MMP) were plated on 12-mm coverslips. […] Untreated cells served as negative control for this experiment. Cells were washed with PBS and then incubated with zymography reaction buffer (0.05 M Tris-HCl, 0.15 M NaCl, 5 mM CaCl2, and 0.2 mM NaN3, pH 7.6, the high concentration of azide prevented the gelatin from being phagocytosed and thus allowing cell surface gelatinolytic activity to occur) containing 60 ug/ml DQ gelatin at 37° C. overnight. […] At the end of the incubation period, without fixation or further washes, gelatinolytic activity of the MMPs was localized and photographed by fluorescence microscopy and images were acquired by Spot digital camera.
To confirm the inhibitory activity of anti CoTCPP mAb at cellular level, the effect of the antibody was examined on gelatinolytic activity of human fibrosarcoma HT1080 cells that constitutively secrete MMP-2 and 9 by in situ zymography. To localize gelatinolytic activity of MMPs by in situ zymography, fluorescein isothiocyanate-labeled gelatin that is intramolecularly quenched (DQ-gelatin) was used as substrate. Proteolysis by gelatinases yields cleaved fluorescein isothiocyanate-gelatin peptides and the localization of this fluorescence indicates the sites of net gelatinolytic activity.

[6] = biological target: TACE (ADAM-17) (Homo sapiens, UniProt P78536); assay: kinetic assay with fluorogenic peptide QF-45, TACE; type: biochemical; settings: Table 4
Chain of TACE (ADAM-17) (P78536 215-824, species assumed): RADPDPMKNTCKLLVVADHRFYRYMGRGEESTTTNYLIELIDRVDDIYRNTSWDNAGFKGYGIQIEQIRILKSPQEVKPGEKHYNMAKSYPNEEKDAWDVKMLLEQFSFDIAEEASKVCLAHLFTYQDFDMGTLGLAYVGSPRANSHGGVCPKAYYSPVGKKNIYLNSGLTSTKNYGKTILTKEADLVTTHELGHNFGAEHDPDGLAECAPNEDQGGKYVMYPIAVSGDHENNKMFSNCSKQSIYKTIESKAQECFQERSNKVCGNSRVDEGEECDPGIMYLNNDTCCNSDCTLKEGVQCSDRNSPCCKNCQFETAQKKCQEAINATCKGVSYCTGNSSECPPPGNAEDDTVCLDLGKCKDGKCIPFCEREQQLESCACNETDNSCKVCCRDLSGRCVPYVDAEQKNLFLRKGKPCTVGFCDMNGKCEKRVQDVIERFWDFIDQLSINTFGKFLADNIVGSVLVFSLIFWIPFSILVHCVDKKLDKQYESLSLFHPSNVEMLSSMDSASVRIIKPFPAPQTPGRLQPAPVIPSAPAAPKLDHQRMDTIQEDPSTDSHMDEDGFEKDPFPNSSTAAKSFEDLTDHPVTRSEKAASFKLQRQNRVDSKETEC

[7] = competitive ELISA, affinity of mAbs toward their immunizing hapten; settings: concentration of soluble hapten for 50% binding
Protocol: Supernatants of the growing hybridomas were screened for antibodies reactive with ZnTCPP, CoTCPP or Imisdp using direct ELISA in which respective hapten-BSA (3 μg/ml in PBS) was coated to Nunc maxisorp plates. The coating was performed at 4° C. overnight and incubation with antibodies at 20° C. for 1 h. HRP-conjugated anti-mouse mAb (Sigma) was used as the secondary antibody and 2,2′-azino-bis (3-ethylbenzthiazoline-6-sulphonic acid, ABTS, Sigma) was used as substrate. PBS containing 0.005% v/v Tween 20 (PBST) was used as washing reagent. The dilution buffer was PBS. A602 was recorded by microplate reader in […]luor Plus spectrometer (Tecan, Austria). As control supernatants were incubated with BSA coated plates in the same manner Absorbance values above 0.5 millioptical density were considered as positive.
Different dilutions of hybridoma supernatant were incubated with hapten-BSA coated plates following the steps described earlier. Titration curve was plotted and the titer dilution was determined at 50% of binding. Supernatants diluted to the titer concentration were preincubated with soluble ZnTCPP, CoTCPP or Imisdp compounds for 30 minutes and then transferred to hapten-coated microtiter plates following the steps described previously. The estimated dissociation constant was the concentration of soluble hapten required to attain 50% binding.

[8] = system: MMP-9; assay: kinetic assay with fluorogenic peptide substrate, MMP-9; type: biochemical, human
Chain of MMP-9 (P14780 107-444 limits assumed): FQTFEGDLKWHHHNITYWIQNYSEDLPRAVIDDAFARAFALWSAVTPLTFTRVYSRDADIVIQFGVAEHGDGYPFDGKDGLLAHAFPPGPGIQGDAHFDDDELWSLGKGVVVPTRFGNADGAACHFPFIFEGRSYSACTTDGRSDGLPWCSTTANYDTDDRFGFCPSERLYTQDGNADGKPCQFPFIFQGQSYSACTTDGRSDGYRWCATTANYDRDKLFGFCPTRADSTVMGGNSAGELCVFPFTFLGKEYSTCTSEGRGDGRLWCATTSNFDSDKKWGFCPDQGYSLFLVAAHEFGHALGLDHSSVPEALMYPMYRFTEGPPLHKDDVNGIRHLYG

[9] = system: MMP-2; assay: kinetic assay with fluorogenic peptide substrate, MMP-2; type: biochemical, human
[10] = biological target: MT1-MMP (MMP-14) (Homo sapiens, UniProt P50281); assay: kinetic assay with fluorogenic peptide substrate, MT1-MMP; type: biochemical; settings: Table 4

Molecule: COc1ccc(S(=O)(=O)N(Cc2cccnc2)[C@@H](C(=O)NO)C(C)C)cc1 [CGS27023A]
severe side effects [1]: widespread maculopapular rash

Molecule: CNC(=O)[C@H](Cc1ccccc1)NC(=O)[C@H](CC(C)C)[C@H](CSc1cccs1)C(=O)NO [batimastat]
metabolic stability and oral bioavailability [2]: low

Molecule: O=C(C[C@H](CSc1ccccc1)C(=O)O)c1ccc(-c2ccc(Cl)cc2)cc1 [BAY12-9566]
clinical efficacy in inhibiting metastasis [3]: no clinical efficacy | severe side effects [1]: liver abnormalities, anemia, shoulder and back pain, thrombocytopenia, nausea, fatigue, diarrhea and deep vein thrombosis

Molecule: O=S(=O)(CC1CS1)c1ccc(Oc2ccccc2)cc1 (stereo not drawn) [SB-3CT, reference compound]
Ki [4]: 0.11 µM | cell surface gelatinolytic activity [5]: inhibition observed

Molecule: CNC(=O)[C@@H](NC(=O)[C@H](CC(C)C)[C@H](O)C(=O)NO)C(C)(C)C [marimastat]
clinical efficacy in inhibiting metastasis [3]: no clinical efficacy | severe side effects [1]: muscoloskeletal problems

IC50 [6]: > 30 µM | Kd [7]: 0.01 µM | IC50 ([8]; Table 4): > 30 µM | IC50 ([9]; Table 4): > 30 µM | IC50 [10]: > 30 µM
B1: 15E12: monoclonal antibody, IgG2a, raised against the hapten ZnTCPP (antibody)
heavy: EGPGLVAPSQSLSITCTVSGISLSSYDISWIRQPPGKGLEWLGVMETWSGGGTENYNSAFMETSRLSISKDNSKRQVFLNMETNSVQIDDTATYYCIGRLHYYGYWFLDVWDQG
light: EMETTQTPLSLPVSLGDQASISCRSSQSIVQSNGNTYLDWYLQKPGQSPKLLIYKVSNERFSGVPDRFSGSGSGTDFTLKISRVEADDLGVYYCFQGSHVPYTFGGG
modifications: 15E12 mAb heavy chain; 15E12 mAb light chain
notes: monoclonal antibody, IgG2a, raised against the hapten ZnTCPP
inhibition of proteolytic activity of MMP-9 ([8]; continuous fluorometric assay): did not show inhibitory effect | inhibition of proteolytic activity of MMP-2 ([9]; continuous fluorometric assay): did not show inhibitory effect
